Assay results as given in patent EP1824830B1, “RADIOLABELLED QUINOLINE-BASED LIGANDS FOR THE 5-HT6 RECEPTOR FUNCTIONALITY” (GLAXO GROUP LIMITED, priority 2004, dated 2006).
Each block holds one molecule with its values, some of them ahead of it.

Legend:
[1] = target: T1, human recombinant 5-HT6 receptor (Homo sapiens, UniProt P50406); test: Radioligand binding, competition studies with [^3H]LSD
T1 construct: expressed in transfected cells; host or cells: HeLa
From the text: (§1) Table 1. Binding Profile (pKi values) of GSK215083

[2] = target: T2, 5-HT1A (Homo sapiens, UniProt P08908); test: Binding profile
T2 sequence (P08908 1-422): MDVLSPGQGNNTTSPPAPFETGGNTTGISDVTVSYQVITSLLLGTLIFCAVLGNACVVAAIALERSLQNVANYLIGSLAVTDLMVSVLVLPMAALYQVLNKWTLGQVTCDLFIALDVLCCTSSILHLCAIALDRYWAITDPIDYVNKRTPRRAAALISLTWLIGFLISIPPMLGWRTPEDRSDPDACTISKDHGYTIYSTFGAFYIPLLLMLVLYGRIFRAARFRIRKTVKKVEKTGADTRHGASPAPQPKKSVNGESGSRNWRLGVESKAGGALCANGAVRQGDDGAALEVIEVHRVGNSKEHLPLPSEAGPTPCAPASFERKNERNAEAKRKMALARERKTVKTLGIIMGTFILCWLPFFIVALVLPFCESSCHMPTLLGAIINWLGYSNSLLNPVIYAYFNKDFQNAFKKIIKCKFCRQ
From the text: as §1

[3] = target: 5-HT1B (Homo sapiens, UniProt P28222); test: Binding profile
5-HT1B, sequence (P28222 whole entry, species assumed): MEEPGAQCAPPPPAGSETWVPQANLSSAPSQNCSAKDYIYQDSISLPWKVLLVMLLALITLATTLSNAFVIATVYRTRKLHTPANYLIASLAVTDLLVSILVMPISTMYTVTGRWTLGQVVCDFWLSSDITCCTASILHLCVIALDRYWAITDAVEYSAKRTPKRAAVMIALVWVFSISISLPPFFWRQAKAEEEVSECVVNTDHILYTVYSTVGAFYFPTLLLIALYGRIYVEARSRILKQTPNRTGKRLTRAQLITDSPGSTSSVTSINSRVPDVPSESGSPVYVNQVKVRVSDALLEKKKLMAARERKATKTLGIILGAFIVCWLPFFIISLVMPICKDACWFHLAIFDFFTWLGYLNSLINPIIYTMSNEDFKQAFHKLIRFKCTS
From the text: as §1

[4] = target: 5-HT1D (Homo sapiens, UniProt P28221); test: Binding profile
5-HT1D, sequence (P28221 whole entry, species assumed): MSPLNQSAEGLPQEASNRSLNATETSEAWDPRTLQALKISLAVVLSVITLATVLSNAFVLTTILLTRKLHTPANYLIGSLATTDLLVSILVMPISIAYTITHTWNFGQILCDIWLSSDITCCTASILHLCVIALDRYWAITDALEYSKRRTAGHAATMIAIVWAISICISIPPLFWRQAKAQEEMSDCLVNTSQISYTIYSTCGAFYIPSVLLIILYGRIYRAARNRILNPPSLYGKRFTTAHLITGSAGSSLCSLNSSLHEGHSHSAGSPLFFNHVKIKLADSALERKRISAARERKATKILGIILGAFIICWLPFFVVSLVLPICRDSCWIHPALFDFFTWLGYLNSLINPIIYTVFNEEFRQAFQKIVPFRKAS
From the text: as §1

[5] = target: 5-HT2B (Homo sapiens, UniProt P41595); test: Binding profile
5-HT2B, sequence (P41595 whole entry, species assumed): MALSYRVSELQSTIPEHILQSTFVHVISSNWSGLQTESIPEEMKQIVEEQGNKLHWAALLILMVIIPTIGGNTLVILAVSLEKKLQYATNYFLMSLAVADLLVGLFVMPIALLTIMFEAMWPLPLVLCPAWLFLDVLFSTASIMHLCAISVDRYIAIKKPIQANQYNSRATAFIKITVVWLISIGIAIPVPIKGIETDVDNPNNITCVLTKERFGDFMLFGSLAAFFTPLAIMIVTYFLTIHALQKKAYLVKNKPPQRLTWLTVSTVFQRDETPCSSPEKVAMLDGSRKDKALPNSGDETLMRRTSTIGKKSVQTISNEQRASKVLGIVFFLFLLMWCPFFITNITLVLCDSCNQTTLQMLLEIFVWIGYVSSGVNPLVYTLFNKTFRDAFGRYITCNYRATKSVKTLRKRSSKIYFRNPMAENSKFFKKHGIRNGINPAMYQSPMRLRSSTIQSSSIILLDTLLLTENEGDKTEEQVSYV
From the text: as §1

[6] = target: T3, 5-HT2C (Homo sapiens, UniProt P28335); test: Binding profile
T3 sequence (P28335 33-458): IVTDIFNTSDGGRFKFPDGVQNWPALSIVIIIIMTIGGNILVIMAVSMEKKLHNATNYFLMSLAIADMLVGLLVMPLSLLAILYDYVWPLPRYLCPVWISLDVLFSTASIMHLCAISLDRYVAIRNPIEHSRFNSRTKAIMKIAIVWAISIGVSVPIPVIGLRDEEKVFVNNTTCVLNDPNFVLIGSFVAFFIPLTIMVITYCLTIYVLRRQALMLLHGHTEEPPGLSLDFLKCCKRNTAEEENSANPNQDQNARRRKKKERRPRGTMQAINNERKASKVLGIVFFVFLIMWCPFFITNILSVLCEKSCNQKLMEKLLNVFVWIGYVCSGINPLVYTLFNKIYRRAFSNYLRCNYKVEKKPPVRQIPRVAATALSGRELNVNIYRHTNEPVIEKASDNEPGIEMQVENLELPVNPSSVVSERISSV
From the text: as §1

[7] = target: 5-HT7 (Homo sapiens, UniProt P34969); test: Binding profile
5-HT7, sequence (P34969 whole entry, species assumed): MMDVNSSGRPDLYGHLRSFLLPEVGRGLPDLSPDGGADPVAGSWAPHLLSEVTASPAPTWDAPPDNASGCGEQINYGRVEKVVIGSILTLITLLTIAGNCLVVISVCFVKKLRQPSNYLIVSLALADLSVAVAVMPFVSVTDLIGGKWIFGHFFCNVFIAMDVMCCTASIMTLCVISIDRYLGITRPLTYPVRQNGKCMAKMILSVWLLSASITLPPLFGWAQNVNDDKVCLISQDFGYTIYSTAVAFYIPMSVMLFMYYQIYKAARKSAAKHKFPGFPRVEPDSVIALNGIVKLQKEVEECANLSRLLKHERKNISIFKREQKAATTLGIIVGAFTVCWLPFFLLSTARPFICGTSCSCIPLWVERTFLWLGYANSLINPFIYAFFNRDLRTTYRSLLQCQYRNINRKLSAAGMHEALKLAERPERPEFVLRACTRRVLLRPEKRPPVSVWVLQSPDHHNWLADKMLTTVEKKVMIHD
From the text: as §1

[8] = target: Dopamine D2 (Homo sapiens, UniProt P14416); test: Binding profile
Dopamine D2, sequence (P14416 whole entry): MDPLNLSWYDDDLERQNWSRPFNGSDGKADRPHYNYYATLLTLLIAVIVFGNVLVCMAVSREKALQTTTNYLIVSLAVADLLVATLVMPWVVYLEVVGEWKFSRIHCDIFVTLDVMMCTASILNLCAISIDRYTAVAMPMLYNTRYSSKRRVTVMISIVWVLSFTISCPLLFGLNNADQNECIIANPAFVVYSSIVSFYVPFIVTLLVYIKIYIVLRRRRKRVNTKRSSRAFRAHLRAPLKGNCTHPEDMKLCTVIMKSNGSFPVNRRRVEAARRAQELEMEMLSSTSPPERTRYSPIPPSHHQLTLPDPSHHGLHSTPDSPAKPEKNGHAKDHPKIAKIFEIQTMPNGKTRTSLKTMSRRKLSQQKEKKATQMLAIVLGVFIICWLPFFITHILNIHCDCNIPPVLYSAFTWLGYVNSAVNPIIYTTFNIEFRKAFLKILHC
From the text: as §1

[9] = target: Dopamine D3 (Homo sapiens, UniProt P35462); test: Binding profile
Dopamine D3, sequence (P35462 whole entry): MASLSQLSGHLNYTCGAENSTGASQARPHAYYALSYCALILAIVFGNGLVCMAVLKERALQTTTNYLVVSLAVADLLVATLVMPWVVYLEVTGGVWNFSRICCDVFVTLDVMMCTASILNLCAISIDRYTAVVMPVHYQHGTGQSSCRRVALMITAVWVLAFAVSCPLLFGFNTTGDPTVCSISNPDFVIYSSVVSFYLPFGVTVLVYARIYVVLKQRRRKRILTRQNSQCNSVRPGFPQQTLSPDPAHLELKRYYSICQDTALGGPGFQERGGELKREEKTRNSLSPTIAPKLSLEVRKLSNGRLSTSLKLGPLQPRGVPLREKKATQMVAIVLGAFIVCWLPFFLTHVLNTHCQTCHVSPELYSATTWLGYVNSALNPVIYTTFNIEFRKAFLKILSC
From the text: as §1

[10] = target: T4, α1B adrenoreceptor (Homo sapiens, UniProt P35368); test: Binding profile
T4 sequence (P35368 1-520): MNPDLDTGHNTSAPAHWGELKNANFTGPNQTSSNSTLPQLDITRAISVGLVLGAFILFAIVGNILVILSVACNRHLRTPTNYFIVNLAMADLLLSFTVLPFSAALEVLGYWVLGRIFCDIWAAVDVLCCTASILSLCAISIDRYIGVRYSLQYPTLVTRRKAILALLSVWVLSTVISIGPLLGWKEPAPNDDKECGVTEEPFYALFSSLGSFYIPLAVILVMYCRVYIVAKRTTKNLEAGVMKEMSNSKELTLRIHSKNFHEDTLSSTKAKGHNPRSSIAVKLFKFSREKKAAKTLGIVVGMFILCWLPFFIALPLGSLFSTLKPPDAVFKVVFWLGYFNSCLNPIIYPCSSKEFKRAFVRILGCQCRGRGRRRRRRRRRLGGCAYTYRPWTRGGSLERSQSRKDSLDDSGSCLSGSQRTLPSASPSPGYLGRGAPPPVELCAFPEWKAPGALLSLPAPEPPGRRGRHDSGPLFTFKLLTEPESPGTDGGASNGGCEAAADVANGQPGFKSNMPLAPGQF
From the text: as §1

[11] = target: 5-HT2A (Homo sapiens, UniProt P28223); test: Binding profile
5-HT2A, sequence (P28223 whole entry, species assumed): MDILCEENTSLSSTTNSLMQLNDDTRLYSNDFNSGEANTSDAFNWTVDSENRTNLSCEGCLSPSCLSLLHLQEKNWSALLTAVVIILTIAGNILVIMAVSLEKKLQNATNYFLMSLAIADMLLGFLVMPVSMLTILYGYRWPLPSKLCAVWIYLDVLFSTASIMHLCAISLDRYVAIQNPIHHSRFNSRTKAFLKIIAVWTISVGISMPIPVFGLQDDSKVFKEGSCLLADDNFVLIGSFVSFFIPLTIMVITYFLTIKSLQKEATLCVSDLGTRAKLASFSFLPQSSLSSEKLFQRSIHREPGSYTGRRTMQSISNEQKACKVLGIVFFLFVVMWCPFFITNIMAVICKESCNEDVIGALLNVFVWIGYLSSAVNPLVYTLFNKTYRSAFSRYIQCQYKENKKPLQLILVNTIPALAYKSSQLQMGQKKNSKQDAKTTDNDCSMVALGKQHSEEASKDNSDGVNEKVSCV

[12] = tested on: 5-HT6 receptors; test: PET imaging, saturation of 5-HT6 receptors in the brain
[13] = tested on: 5-HT6 receptors; settings: PET
[14] = 60min post administration of 0.5mg/kg GSK215083 with [^11C]GSK215083
[15] = 60 min post coinjection of [^11C]GSK215083 with 0.005mg/kg of GSK215083
[16] = [^11C]GSK215083 coadministered with 0.05mg/kg of GSK215083
[17] = baseline scan, 60 min post injection of [^11C]GSK215083

T1 sequence (P50406 whole entry): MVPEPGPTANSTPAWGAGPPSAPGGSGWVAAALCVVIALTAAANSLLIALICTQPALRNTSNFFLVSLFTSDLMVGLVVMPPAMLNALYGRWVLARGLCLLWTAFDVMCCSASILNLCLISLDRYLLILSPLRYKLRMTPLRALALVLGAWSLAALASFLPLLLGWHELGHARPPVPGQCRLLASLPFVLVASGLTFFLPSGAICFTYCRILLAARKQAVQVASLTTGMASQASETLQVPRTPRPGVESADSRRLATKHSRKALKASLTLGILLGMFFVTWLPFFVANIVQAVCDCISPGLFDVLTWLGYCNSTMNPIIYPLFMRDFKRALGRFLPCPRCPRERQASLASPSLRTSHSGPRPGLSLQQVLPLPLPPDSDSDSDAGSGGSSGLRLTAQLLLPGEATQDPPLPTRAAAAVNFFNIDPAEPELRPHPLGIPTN

Ki ([1]; human recombinant 5-HT6 receptor stably expressed in the HeLa cell line, [^3H]LSD as radioligand): 0.000151 µM
Ki [2]: > 7.08 µM
Ki [3]: 0.105 µM
Ki [4]: 0.0692 µM
Ki [5]: 0.00912 µM
Ki [6]: 0.0178 µM
Ki [7]: > 10 µM
Ki [8]: 0.912 µM
Ki [9]: 0.977 µM
Ki [10]: 0.977 µM
Ki [11]: 0.000724 µM
SMILES: CN1CCN(c2cccc3cc(S(=O)(=O)c4cccc(F)c4)cnc23)CC1 [GSK215083, 3-[(3-fluorophenyl)sulfonyl]-8-(4-methyl-1-piperazinyl)quinoline]
selectivity for the human 5-HT6 receptor ([1]; over other receptors screened to date): selective for the human 5-HT6 receptor over other receptors screened to date
cortex to cerebellum ratio [12, 14]: 1 to 1
striatum to cerebellum ratio [12, 14]: 1.1 to 1
cortex to cerebellum ratio [12, 15]: 1.2 to 1
striatum to cerebellum ratio [12, 15]: 1.5 to 1
cortex to cerebellum ratio [12, 16]: 1.1 to 1
striatum to cerebellum ratio [12, 16]: 1.3 to 1

SMILES: [11CH3]N1CCN(c2cccc3cc(S(=O)(=O)c4cccc(F)c4)cnc23)CC1 [[^11C]GSK215083, [^11C-N-methyl]-3-(3-Fluoro-benzenesulfonyl)-8-(4-methyl-piperazin-1-yl)-quinoline]
concentration in cerebellum ([13]; pig brain): low
rank order of regional brain concentrations ([13]; pig brain): striatum>cortical regions>cerebellum
time of peak regional tissue concentrations post injection ([13]; pig brain, intravenous 1 minute bolus): approximately 20 min
brain entry ([13]; pig, intravenous 1 minute bolus): readily enters the brain
cortex to cerebellum ratio [12, 17]: 1.5 to 1
striatum to cerebellum ratio [12, 17]: 2 to 1
